# Results as given in ChEMBL document CHEMBL5523741, “Development of an Orally Bioavailable LCK PROTAC Degrader as a Potential Therapeutic Approach to T-Cell Acute Lymphoblastic Leukemia” (J Med Chem, 2024).
# Active and inactive are the calls of the source. No cut-off for these calls is given here.
# What was measured:
# [1] = Apparent permeability of compound across basolateral to apical side in human Caco-2 cells; assay type: ADME, cell-based
# [2] = Metabolic stability in mouse liver microsomes assessed as half life in presence of NADPH by UPLC-MS/MS analysis; assay type: ADME, Microsome
# [3] = Aqueous solubility of the compound incubated for 18 hrs by UPLC-SQDMS; assay type: physicochemical; settings: buffer
# [4] = Stability in CD-1 mouse plasma assessed as half life; assay type: ADME, cell-free
# [5] = Drug concentration in CD-1 mouse plasma at 30 mg/kg, po measured after 4 hrs by UPLC-MS/MS analysis; assay type: ADME, organism-based
# [6] = Apparent permeability of compound across apical to basolateral side in human Caco-2 cells; assay type: ADME, cell-based
# [7] = target: Protein cereblon/Tyrosine-protein kinase Lck (Homo sapiens, UniProt P06239+Q96SW2); assay: PROTAC activity at HiBit-tagged LCK/CRBN in human KOPT-K1 cells assessed as induction of LCK degradation incubated for 6 hrs by Nano-Glo HiBiT assay relative to control; assay type: cell-based
# Chain of Protein cereblon/Tyrosine-protein kinase Lck (P06239 2-509 limits assumed): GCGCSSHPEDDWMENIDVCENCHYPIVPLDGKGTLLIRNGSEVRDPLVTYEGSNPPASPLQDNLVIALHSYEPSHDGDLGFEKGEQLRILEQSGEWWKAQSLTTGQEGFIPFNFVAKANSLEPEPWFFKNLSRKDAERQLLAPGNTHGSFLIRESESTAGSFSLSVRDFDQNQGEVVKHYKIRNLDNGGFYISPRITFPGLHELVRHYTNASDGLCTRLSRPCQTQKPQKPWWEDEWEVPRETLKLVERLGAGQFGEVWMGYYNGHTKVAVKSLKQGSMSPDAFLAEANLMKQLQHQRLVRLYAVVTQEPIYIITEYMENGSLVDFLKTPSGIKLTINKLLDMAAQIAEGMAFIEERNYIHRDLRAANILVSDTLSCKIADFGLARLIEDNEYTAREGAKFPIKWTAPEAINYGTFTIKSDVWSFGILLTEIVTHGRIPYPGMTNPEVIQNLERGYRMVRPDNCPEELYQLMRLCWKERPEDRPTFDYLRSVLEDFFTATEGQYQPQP
# Chain of Protein cereblon/Tyrosine-protein kinase Lck (Q96SW2 whole entry partner): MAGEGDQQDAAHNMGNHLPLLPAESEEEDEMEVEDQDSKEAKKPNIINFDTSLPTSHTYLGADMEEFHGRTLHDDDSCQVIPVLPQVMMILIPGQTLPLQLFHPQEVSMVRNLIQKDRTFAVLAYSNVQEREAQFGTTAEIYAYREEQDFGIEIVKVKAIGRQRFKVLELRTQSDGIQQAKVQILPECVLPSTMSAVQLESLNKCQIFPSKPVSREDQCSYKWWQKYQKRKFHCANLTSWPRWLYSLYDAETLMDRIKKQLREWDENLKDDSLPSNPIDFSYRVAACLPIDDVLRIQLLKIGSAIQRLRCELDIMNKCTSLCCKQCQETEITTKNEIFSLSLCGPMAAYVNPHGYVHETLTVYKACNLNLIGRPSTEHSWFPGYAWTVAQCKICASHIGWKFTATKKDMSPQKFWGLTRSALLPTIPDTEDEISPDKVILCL
# KOPTK1 [8] = assay: Downregulation of CISH in human KOPT-K1 cells measured for 6 hrs by tandem mass tag proteomic assay; assay type: functional, cell-based
# KOPTK1 [9] = assay: Antiproliferative activity against human KOPT-K1 cells assessed as inhibition of cell growth at 100 nM measured for 18 hrs by celltiter glo assay; assay type: functional, cell-based
# KOPTK1 [10] = assay: Antiproliferative activity against human KOPT-K1 cells assessed as inhibition of cell growth at 100 nM measured for 160 hrs by celltiter glo assay; assay type: functional, cell-based
# KOPTK1 [11] = assay: Downregulation of CSK in human KOPT-K1 cells measured for 6 hrs by tandem mass tag proteomic assay; assay type: functional, cell-based
# KOPTK1 [12] = assay: Downregulation of EPHB1 in human KOPT-K1 cells measured for 6 hrs by tandem mass tag proteomic assay; assay type: functional, cell-based
Structure (SMILES),Papp B→A [1] [×10⁻⁶ cm/s],half-life [2] [h],solubility at 18 h [3] [µM],half-life [4] [h],concentration at 4 h [5] [ng/mL],Papp A→B [6] [×10⁻⁶ cm/s],Emax [7] [%],Activity (KOPTK1 [8]),Activity (KOPTK1 [9]),Activity (KOPTK1 [10]),Activity (KOPTK1 [11]),Activity (KOPTK1 [12])
Cc1nc(Nc2ncc(C(=O)Nc3c(C)cccc3Cl)s2)cc(N2CCN(CCCN3CCC4(CC3)CCN(c3ccc(C5CCC(=O)NC5=O)cc3)CC4)CC2)n1 (stereo unspecified),5.3,10,1.4,47.4,18,0.231,93,,,,,
Cc1nc(Nc2ncc(C(=O)Nc3c(C)cccc3Cl)s2)cc(N2CCN(CCCC(=O)N3CCN(c4ccc(C5CCC(=O)NC5=O)cc4)CC3)CC2)n1 (stereo unspecified),,1.06,0.15,,,,93,,,,,
Cc1nc(Nc2ncc(C(=O)Nc3c(C)cccc3Cl)s2)cc(N2CCN(Cc3ccc(C4CCC(=O)NC4=O)cc3)CC2)n1 (stereo unspecified),,1.23,1.99,,,,< 60,,,,,
Cc1nc(Nc2ncc(C(=O)Nc3c(C)cccc3Cl)s2)cc(N2CCN(CCCC(=O)N3CCC4(CC3)CCN(c3ccc(C5CCC(=O)NC5=O)cc3)CC4)CC2)n1 (stereo unspecified),,1.2,1.5,,,,86,,,,,
Cc1nc(Nc2ncc(C(=O)Nc3c(C)cccc3Cl)s2)cc(N2CCN(CCCN3CCC(c4ccc(C5CCC(=O)NC5=O)cc4)CC3)CC2)n1 (stereo unspecified),9.82,10,2.57,4.98,54,1.04,87,,,,,
Cc1nc(Nc2ncc(C(=O)Nc3c(C)cccc3Cl)s2)cc(N2CCN(C(=O)CCCN3CC4CC3CN4c3ccc(C4CCC(=O)NC4=O)cc3)CC2)n1 (stereo unspecified),1.55,0.54,15.2,4.25,1.19,1.32,88,,,,,
Cc1nc(Nc2ncc(C(=O)Nc3c(C)cccc3Cl)s2)cc(N2CCN(CCO)CC2)n1,,,,,,,,Active,Active,inactive,Active,Active
Cc1nc(Nc2ncc(C(=O)Nc3c(C)cccc3Cl)s2)cc(N2CCN(CCCN3CCN(c4ccc(C5CCC(=O)NC5=O)cc4)CC3)CC2)n1 (stereo unspecified),,6.9,2.08,,,,90,,,,,
Cc1nc(Nc2ncc(C(=O)Nc3c(C)cccc3Cl)s2)cc(N2CCN(CCCC(=O)N3CCC(CN4CCN(c5ccc(C6CCC(=O)NC6=O)cc5)CC4)CC3)CC2)n1 (stereo unspecified),,0.67,0.65,,,,84,,,,,
